Entries after “also recorded” stand apart in the source; their conditions may differ.
System: Kyn levels in BxPC3 cells (kynurenine generated by IDO1)
Experiment: Cellular Kyn assay (automated Kyn screening assay)
Assay type: cell-based
Conditions: for IC50: Homo sapiens, BXPC-3, 48 h, IFN-γ, L-Trp and compounds 48 h, mean ± SD, read-out: IC50 (Kyn assay), reduction of kynurenine levels

Compound | IC50 | activity in cellular Kyn assay (in words) | also measured
Cc1ccc(NC(=O)NC[C@]23CN(S(=O)(=O)c4ccc(C(C)(C)C)cc4)C[C@H]2C[C@H]2C[C@@H]3C2(C)C)cc1 [compound 7, 1-(((3aR,4R,6R,7aS)-2-((4-(tert-butyl)phenyl)sulfonyl)-5,5-dimethyloctahydro-3aH-4,6-methanoisoindol-3a-yl)methyl)-3-(p-tolyl) urea] |  | did not improve activity | 
Cc1ccc(NC(=O)OC[C@]23CN(Cc4ccccc4)C[C@H]2C[C@H]2C[C@@H]3C2(C)C)cc1 [compound 9, ((3aS,4R,6R,7aS)-2-benzyl-5,5-dimethyloctahydro-3aH-4,6-methanoisoindol-3a-yl) methyl p-tolylcarbamate] |  | abolished activity; also recorded: loss of activity | 
Cc1ccc(OC(=O)OC[C@]23CN(S(=O)(=O)c4ccc(C(C)(C)C)cc4)C[C@H]2C[C@H]2C[C@@H]3C2(C)C)cc1 [compound 13, ((3aS,4R,6R,7aS)-2-((4-(tert-butyl)phenyl)sulfonyl)-5,5-dimethyloctahydro-3aH-4,6-methanoisoindol-3a-yl)methyl p-tolyl carbonate] |  | did not improve activity; also recorded: inactive | 
CC(C)(C)c1ccc(S(=O)(=O)N2CC3C[C@H]4C[C@H](C4(C)C)[C@]3(COC(=O)c3ccccc3)C2)cc1 (stereo partly drawn) [compound 15, ((3aR,4R,6R)-2-((4-(tert-butyl)phenyl)sulfonyl)-5,5-dimethyloctahydro-3aH-4,6-methanoisoindol-3a-yl)methyl benzoate] |  | did not improve activity; also recorded: inactive | 
CC(C)(C)c1ccc(C(=O)N2C[C@H]3C[C@H]4C[C@H](C4(C)C)[C@@]3(COC(=O)Nc3ccc(I)cc3)C2)cc1 [compound 16, ((3aS,4R,6R,7aS)-2-(4-(tert-butyl)benzoyl)-5,5-dimethyloctahydro-3aH-4,6-methanoisoindol-3a-yl)methyl (4-iodophenyl)carbamate] |  | abolished activity | 
CC(C)(C)c1ccc(S(=O)(=O)N2C[C@@H]3C[C@@H]4C[C@@H](C4(C)C)[C@]3(COC(=O)Nc3ccc(I)cc3)C2)cc1 [compound 20, ((3aR,4S,6S,7aR)-2-((4-(tert-butyl)phenyl)sulfonyl)-5,5-dimethyloctahydro-3aH-4,6-methanoisoindol-3a-yl)methyl (4-iodophenyl)carbamate] |  |  | fold lower activity than 14 (iDeg-2) in Kyn assay: 16 fold
CC(C)(C)c1ccc(S(=O)(=O)N2C[C@@H]3C[C@@H]4[C@H](C[C@]3(COC(=O)Nc3ccc(I)cc3)C2)C4(C)C)cc1 [compound 21, ((3aR,4aS,5aR,6aR)-2-((4-(tert-butyl)phenyl)sulfonyl)-5,5-dimethyloctahydrocyclopropa[f]isoindol-3a(1H)-yl)methyl (4-iodophenyl)carbamate] |  | inactive | 
CC(C)[C@]12C[C@@H](OC(=O)Nc3ccc(I)cc3)[C@]3(CCN(S(=O)(=O)c4ccc(C(C)(C)C)cc4)C3)[C@H]1C2 [compound 23, (1S,2R,3R,5S)-1'-((4-(tert-butyl)phenyl)sulfonyl)-5-isopropylspiro[bicyclo[3.1.0]hexane-2,3'-pyrrolidin]-3-yl (4-iodophenyl) carbamate] |  | inactive | 
CC(C)[C@]12CC(OC(=O)Nc3ccc(I)cc3)[C@]3(CCN(S(=O)(=O)c4ccc(C(C)(C)C)cc4)C3)[C@H]1C2 (stereo partly drawn) [compound 24, (1S,2R,5S)-1'-((4-(tert-butyl)phenyl)sulfonyl)-5-isopropylspiro[bicyclo[3.1.0]hexane-2,3'-pyrrolidin]-3-yl (4-iodophenyl)carbamate] |  | inactive | 
CC(C)(C)c1ccc(S(=O)(=O)N2CC3CCCCC3(COC(=O)Nc3ccc(I)cc3)C2)cc1 (centres unmarked) [compound 25, (2-((4-(tert-butyl)phenyl)sulfonyl)octahydro-3aH-isoindol-3a-yl) methyl (4-iodophenyl) carbamate] |  | inactive | 
CC(C)(C)c1ccc(S(=O)(=O)N2CC3CCCC3(COC(=O)Nc3ccc(I)cc3)C2)cc1 (centres unmarked) [compound 26, (2-((4-(tert-butyl)phenyl)sulfonyl)hexahydrocyclopenta [c]pyrrol-3a(1H)-yl) methyl (4-iodophenyl) carbamate] |  | inactive | 
CC(C)(C)c1ccc(S(=O)(=O)N2C[C@H]3C[C@H]4C[C@H](C4(C)C)[C@@]3(COC(=O)Nc3ccccc3)C2)cc1 [compound 32, ((3aS,4R,6R,7aS)-2-((4-(tert-butyl)phenyl)sulfonyl)-5,5-dimethyloctahydro-3aH-4,6-methanoisoindol-3a-yl)methyl phenylcarbamate] | 7 ± 1.6 µM |  | 
CC(C)(C)c1ccc(S(=O)(=O)N2C[C@H]3C[C@H]4C[C@H](C4(C)C)[C@@]3(COC(=O)Nc3ccc(Br)cc3)C2)cc1 [compound 36, ((3aS,4R,6R,7aS)-2-((4-(tert-butyl)phenyl)sulfonyl)-5,5-dimethyloctahydro-3aH-4,6-methanoisoindol-3a-yl)methyl (4-bromophenyl)carbamate] | 0.23 ± 0.05 µM |  | 

The next lines start with results.

IC50 | Compound | activity in cellular Kyn assay (in words) | also measured
2.9 ± 0.3 µM | CCc1ccc(NC(=O)OC[C@]23CN(S(=O)(=O)c4ccc(C(C)(C)C)cc4)C[C@H]2C[C@H]2C[C@@H]3C2(C)C)cc1 [compound 28, ((3aS,4R,6R,7aS)-2-((4-(tert-butyl)phenyl)sulfonyl)-5,5-dimethyloctahydro-3aH-4,6-methanoisoindol-3a-yl)methyl (4-ethylphenyl)carbamate] |  | 
> 10 µM | CC(C)(C)c1ccc(S(=O)(=O)N2C[C@H]3C[C@H]4C[C@H](C4(C)C)[C@@]3(COC(=O)Nc3ccc(F)cc3)C2)cc1 [compound 34, ((3aS,4R,6R,7aS)-2-((4-(tert-butyl)phenyl)sulfonyl)-5,5-dimethyloctahydro-3aH-4,6-methanoisoindol-3a-yl)methyl (4-fluorophenyl)carbamate] |  | 
0.51 ± 0.08 µM | CC(C)(C)c1ccc(S(=O)(=O)N2C[C@H]3C[C@H]4C[C@H](C4(C)C)[C@@]3(COC(=O)Nc3ccc(Cl)cc3)C2)cc1 [compound 35, ((3aS,4R,6R,7aS)-2-((4-(tert-butyl)phenyl)sulfonyl)-5,5-dimethyloctahydro-3aH-4,6-methanoisoindol-3a-yl)methyl (4-chlorophenyl)carbamate] |  | 
0.89 ± 0.18 µM | CC(C)(C)c1ccc(S(=O)(=O)N2C[C@H]3C[C@H]4C[C@H](C4(C)C)[C@@]3(COC(=O)Nc3ccccc3I)C2)cc1 [compound 37, ((3aS,4R,6R,7aS)-2-((4-(tert-butyl)phenyl)sulfonyl)-5,5-dimethyloctahydro-3aH-4,6-methanoisoindol-3a-yl)methyl (2-iodophenyl)carbamate] |  | 
0.39 ± 0.07 µM | CC(C)(C)c1ccc(S(=O)(=O)N2C[C@H]3C[C@H]4C[C@H](C4(C)C)[C@@]3(COC(=O)Nc3ccccc3Br)C2)cc1 [compound 38, ((3aS,4R,6R,7aS)-2-((4-(tert-butyl)phenyl)sulfonyl)-5,5-dimethyloctahydro-3aH-4,6-methanoisoindol-3a-yl)methyl (2-bromophenyl)carbamate] |  | 
9.9 ± 1.58 µM | CC(C)(C)c1ccc(S(=O)(=O)N2C[C@H]3C[C@H]4C[C@H](C4(C)C)[C@@]3(COC(=O)Nc3cccc(Br)c3)C2)cc1 [compound 39, ((3aS,4R,6R,7aS)-2-((4-(tert-butyl)phenyl)sulfonyl)-5,5-dimethyloctahydro-3aH-4,6-methanoisoindol-3a-yl)methyl (3-bromophenyl)carbamate] |  | 
> 10 µM | CC(C)(C)c1ccc(S(=O)(=O)N2C[C@H]3C[C@H]4C[C@H](C4(C)C)[C@@]3(COC(=O)Nc3cccc(N=[N+]=[N-])c3)C2)cc1 [compound 41, ((3aS,4R,6R,7aS)-2-((4-(tert-butyl)phenyl)sulfonyl)-5,5-dimethyloctahydro-3aH-4,6-methanoisoindol-3a-yl)methyl (3-azidophenyl)carbamate] |  | 
> 10 µM | CC(C)(C)c1ccc(S(=O)(=O)N2C[C@H]3C[C@H]4C[C@H](C4(C)C)[C@@]3(COC(=O)Nc3ccc(O)cc3)C2)cc1 [compound 42, ((3aS,4R,6R,7aS)-2-((4-(tert-butyl)phenyl)sulfonyl)-5,5-dimethyloctahydro-3aH-4,6-methanoisoindol-3a-yl)methyl (4-hydroxyphenyl)carbamate] |  | 
1.2 ± 0.2 µM | COc1ccc(NC(=O)OC[C@]23CN(S(=O)(=O)c4ccc(C(C)(C)C)cc4)C[C@H]2C[C@H]2C[C@@H]3C2(C)C)cc1 [compound 44, ((3aS,4R,6R,7aS)-2-((4-(tert-butyl)phenyl)sulfonyl)-5,5-dimethyloctahydro-3aH-4,6-methanoisoindol-3a-yl)methyl (4-methoxyphenyl)carbamate] |  | 
> 10 µM | CC(C)(C)c1ccc(S(=O)(=O)N2C[C@H]3C[C@H]4C[C@H](C4(C)C)[C@@]3(COC(=O)Nc3ccc(C(F)(F)F)cc3)C2)cc1 [compound 45, ((3aS,4R,6R,7aS)-2-((4-(tert-butyl)phenyl)sulfonyl)-5,5-dimethyloctahydro-3aH-4,6-methanoisoindol-3a-yl)methyl (4-(trifluoromethyl)phenyl)carbamate] |  | 
2.1 ± 0.8 µM | CC(C)(C)c1ccc(S(=O)(=O)N2C[C@H]3C[C@H]4C[C@H](C4(C)C)[C@@]3(COC(=O)Nc3ccc(C#N)cc3)C2)cc1 [compound 47, ((3aS,4R,6R,7aS)-2-((4-(tert-butyl)phenyl)sulfonyl)-5,5-dimethyloctahydro-3aH-4,6-methanoisoindol-3a-yl)methyl (4-cyanophenyl)carbamate] |  | 
2.5 ± 0.2 µM | CC(C)(C)c1ccc(S(=O)(=O)N2C[C@H]3C[C@H]4C[C@H](C4(C)C)[C@@]3(COC(=O)Nc3ccc(C#CCCO)cc3)C2)cc1 [compound 53, ((3aS,4R,6R,7aS)-2-((4-(tert-butyl)phenyl)sulfonyl)-5,5-dimethyloctahydro-3aH-4,6-methanoisoindol-3a-yl)methyl (4-(4-hydroxybut-1-yn-1-yl)phenyl)carbamate] |  | 
4.7 ± 0.41 µM | Cc1ccc(NC(=O)OC[C@]23CN(S(=O)(=O)C(C)C)C[C@H]2C[C@H]2C[C@@H]3C2(C)C)cc1 [compound 54, ((3aS,4R,6R,7aS)-2-(isopropylsulfonyl)-5,5-dimethyloctahydro-3aH-4,6-methanoisoindol-3a-yl) methyl p-tolylcarbamate] |  | 

From paper PMC12811658, “Design, Synthesis, and Structural Evolution of Pseudo‐Natural Product IDO1 Inhibitors and Degraders” (Angewandte Chemie (International Ed. in English), 2025)
